Test results taken from the CheMixHub viscosity set.

Assay: xn = mol fraction of the nth substance listed

CC(=O)CC(C)(C)O + O
Settings | viscosity [mPa·s]
298.15 K, 101 kPa, x1 = 0.017 | 1.261
298.15 K, 101 kPa, x2 = 0.2547 | 4.143
298.15 K, 101 kPa, x2 = 0.4824 | 5.758
298.15 K, 101 kPa, x2 = 0.6067 | 6.204
298.15 K, 101 kPa, x2 = 0.7114 | 5.917
298.15 K, 101 kPa, x2 = 0.776 | 5.315
298.15 K, 101 kPa, x2 = 0.8342 | 4.609
298.15 K, 101 kPa, x2 = 0.886 | 3.616
298.15 K, 101 kPa, x2 = 0.9237 | 2.698
298.15 K, 101 kPa, x2 = 0.9508 | 2.022
298.15 K, 101 kPa, x2 = 0.9511 | 2.022
298.15 K, 101 kPa, x2 = 0.9717 | 1.516
303.15 K, 100 kPa, x2 = 0.1 | 2.81
303.15 K, 100 kPa, x2 = 0.2 | 3.27
303.15 K, 100 kPa, x2 = 0.3 | 3.65
303.15 K, 100 kPa, x2 = 0.4 | 4.15
303.15 K, 100 kPa, x2 = 0.5 | 4.55
303.15 K, 100 kPa, x2 = 0.6 | 4.71
303.15 K, 100 kPa, x2 = 0.7 | 4.57
303.15 K, 100 kPa, x2 = 0.8 | 4.08
303.15 K, 100 kPa, x2 = 0.9 | 2.6
323.15 K, 100 kPa, x2 = 0.1 | 1.69
323.15 K, 100 kPa, x2 = 0.2 | 1.82
323.15 K, 100 kPa, x2 = 0.3 | 2.06
323.15 K, 100 kPa, x2 = 0.4 | 2.1
323.15 K, 100 kPa, x2 = 0.5 | 2.3
323.15 K, 100 kPa, x2 = 0.6 | 2.32
323.15 K, 100 kPa, x2 = 0.7 | 2.31
323.15 K, 100 kPa, x2 = 0.8 | 2.09
323.15 K, 100 kPa, x2 = 0.9 | 1.48

CCC(N)=O + O
298.15 K, 101 kPa
Settings | viscosity [mPa·s]
x1 = 0.003097 | 0.919
x1 = 0.0145 | 1.025
x1 = 0.03165 | 1.188
x1 = 0.06563 | 1.536
x1 = 0.1487 | 3.03
x1 = 0.3724 | 5.98

CCCCCCCO + O
Settings | viscosity [mPa·s]
298.15 K, 101 kPa, x2 = 0.28 | 5.5

CCN(CC)CCO + O=C1CCCCC1
viscosity [mPa·s], 101 kPa
Settings | 298.15 K | 308.15 K | 318.15 K
x2 = 0.0501 | 3.267 | 2.46 | 1.885
x2 = 0.1004 | 3.133 | 2.336 | 1.766
x2 = 0.15 | 3.002 | 2.228 | 1.663
x2 = 0.2 | 2.878 | 2.126 | 1.564
x2 = 0.3002 | 2.662 | 1.939 | 1.417
x2 = 0.4 | 2.49 | 1.799 | 1.309
x2 = 0.5 | 2.344 | 1.703 | 1.24
x2 = 0.5999 | 2.234 | 1.647 | 1.224
x2 = 0.6503 | 2.191 | 1.639 | 1.229
x2 = 0.6995 | 2.159 | 1.639 | 1.249
x2 = 0.7997 | 2.127 | 1.663 | 1.306
x2 = 0.8997 | 2.121 | 1.717 | 1.389
x2 = 0.9497 | 2.133 | 1.747 | 1.443

OC1CCCCC1 + O=C1CCCCC1
298.15 K, 101.3 kPa
Settings | viscosity [mPa·s]
x2 = 0.2 | 13.85
x2 = 0.4 | 6.29
x2 = 0.51 | 4.54
x2 = 0.6 | 3.54
x2 = 0.8 | 2.38

CCCCCCCCCCCCCC[P+](CCCCCC)(CCCCCC)CCCCCC.c1ccc2[n-]nnc2c1 + O=C=O
Settings | viscosity [mPa·s]
298.15 K, 100 kPa, x2 = 0.19 | 443

CCCCN(CCC#N)CCCC + O=S=O
303.15 K, 100 kPa
Settings | viscosity [mPa·s]
x2 = 0.17 | 4.1
x2 = 0.34 | 8
x2 = 0.45 | 13.8

OC1CCCCC1 + OC1CCCC1
viscosity [mPa·s], 100 kPa
Settings | x2 = 0.1 | x2 = 0.3 | x2 = 0.5 | x2 = 0.7 | x2 = 0.9
303.15 K | 34.92 | 23.18 | 16.54 | 12.51 | 9.2
308.15 K | 27.86 | 19.17 | 13.78 | 10.67 | 7.88
313.15 K | 21.32 | 15.13 | 11.11 | 8.78 | 6.57
318.16 K | 16.48 | 11.96 | 9.04 | 7.2 | 5.49

CC1(C)OCC(CO)O1 (stereo not drawn) + OCC(O)CO
viscosity [mPa·s], 101 kPa
Settings | x1 = 0.1 | x1 = 0.2015 | x1 = 0.3 | x1 = 0.4012 | x1 = 0.499 | x1 = 0.6002 | x1 = 0.7 | x1 = 0.801 | x1 = 0.9003
298.15 K | 803.5 | 702.6 | 600.8 | 502.2 | 407.7 | 319.4 | 243.3 | 163.1 | 84.15
308.15 K | 356.9 | 310 | 262 | 212.8 | 167.1 | 129.5 | 97.75 | 69.56 | 35.83
318.15 K | 175.4 | 150 | 123.5 | 98.86 | 75.9 | 54.95 | 43.91 | 31.63 | 16.65

CCOC(=O)C(C)O (stereo not drawn) + OCCCO
101 kPa
Settings | viscosity [mPa·s]
298.15 K, x1 = 0.4996 | 9.585
303.15 K, x1 = 0.3 | 14.35
303.15 K, x1 = 0.8 | 3.405
313.15 K, x1 = 0.3998 | 7.365
318.15 K, x1 = 0.3 | 8.235
323.15 K, x1 = 0.5997 | 3.235
